Data published in patent publication US9018214B2, “Bicyclic heterocycle compounds and their uses in therapy” (Astex Therapeutics Limited, priority 2011, dated 2015).
Counter-ions that a name gives are not always drawn. Like-named read-outs stand apart in the source and are kept apart here.

Legend:
[1] = system: EVSA-T (human breast carcinoma); test: Anti-proliferative activity, Alamar Blue assay, EVSA-T; format: cell-based; settings: Homo sapiens, EVSA-T, read-out: EVSA-T prolif (EC50)
[2] = biological target: BIR3 domain of human cIAP-1 (residues 267-363) (Homo sapiens (Human), UniProt Q13490); test: cIAP-1 in vitro competitive displacement binding assay (fluorescence polarization; Probe A AVPIK(5&6FAM)-amide or Probe B AbuRPFK(5&6FAM)-amide); settings: for inhibition at 0.01 µM / inhibition at […]: 3 h, read-out: IC50 or PI cIAP1: PI
[3] = biological target: BIR3 domain of human XIAP (residues 252-350) (Homo sapiens (Human), UniProt P98170); test: XIAP in vitro competitive displacement binding assay (fluorescence polarization); settings: for IC50: read-out: IC50 or PI Xiap: IC50; for inhibition at 0.04 µM: 1 h, read-out: IC50 or PI Xiap: PI
[4] = read-out: IC50 or PI cIAP1: IC50
[5] = Probe B AbuRPFK(5&6FAM)-amide, read-out: IC50 or PI cIAP1: IC50

Row | SMILES | IC50 [3] [nM] | EC50 ([1]; 72 hours, Alamar Blue) [nM] | inhibition at […] ([2]; Probe B, @ 0.012 μM) [%] | further results
1 | CC[C@@H]1COCCN1C[C@H]1CN[C@H](C)CN1CC(=O)N1CC(C)(C)c2ncc(C(C)(F)F)cc21 [Example 253, 1-[6-(1,1-Difluoroethyl)-3,3-dimethyl-1H,2H,3H-pyrrolo[3,2-b]pyridin-1-yl]-2-[(2R,5R)-2-{[(3R)-3-ethylmorpholin-4-yl]methyl}-5-methylpiperazin-1-yl]ethan-1-one dihydrochloride] | 50 |  |  | EC50 ([1]; 72 h): 51 nM; IC50 [2]: < 1000 nM; IC50 [2, 4]: 17 nM
2 | COC[C@H]1CN[C@H](C)CN1CC(=O)N1CC(C)(C)c2cnc(Cc3ccc(F)cc3F)cc21 [Example 105, 1-{6-[(2,4-Difluorophenyl)methyl]-3,3-dimethyl-1H,2H,3H-pyrrolo[3,2-c]pyridin-1-yl}-2-[(2R,5R)-2-(methoxymethyl)-5-methylpiperazin-1-yl]ethan-1-one, hydrochloride salt] | 190 | 55 |  | inhibition at 0.01 µM ([2]; Probe B, @ 0.01 μM): 74%
3 | C[C@@H]1CN(CC(=O)N2CC(C)(C)c3cnc(C(F)(F)c4ccccc4)cc32)[C@@H](C(=O)N(C)C)CN1 [Example 158, (2R,5R)-1-(2-{6-[Difluoro(phenyl)methyl]-3,3-dimethyl-1H,2H,3H-pyrrolo[3,2-c]pyridin-1-yl}-2-oxoethyl)-N,N,5-trimethylpiperazine-2-carboxamide dihydrochloride] | 49 |  |  | EC50 ([1]; 72 h): 300 nM; inhibition at 0.01 µM [2]: 51%
4 | C[C@@H]1CN(CC(=O)N2CC(C)(C)c3cnc(C(F)(F)c4ccccc4)cc32)[C@@H](CN2CCN(C)C2=O)CN1 [Example 197, 1-{[(2R,5R)-1-(2-{6-[Difluoro(phenyl)methyl]-3,3-dimethyl-1H,2H,3H-pyrrolo[3,2-c]pyridin-1-yl}-2-oxoethyl)-5-methylpiperazin-2-yl]methyl}-3-methylimidazolidin-2-one hydrochloride] |  | 49 | 76 | inhibition at 0.04 µM ([3]; @ 0.04 μM): 68%
5 | CCC(F)(F)c1cnc2c(c1)N(C(=O)CN1C[C@@H](C)NC[C@@H]1CN1CCOC[C@H]1C)CC2(C)C [Example 186, 1-[6-(1,1-Difluoropropyl)-3,3-dimethyl-1H,2H,3H-pyrrolo[3,2-b]pyridin-1-yl]-2-[(2R,5R)-5-methyl-2-{[(3R)-3-methylmorpholin-4-yl]methyl}piperazin-1-yl]ethan-1-one, a hydrochloride salt] |  | 25 |  | IC50 [2, 5]: 11 nM; inhibition at 0.04 µM ([3]; @ 0.04 μM): 59%
6 | C[C@@H]1CN(CC(=O)N2CC(C)(C)c3ncc(C(C)(F)F)cc32)[C@@H](CN2CCc3cccnc32)CN1 [Example 222, 1-[6-(1,1-Difluoroethyl)-3,3-dimethyl-1H,2H,3H-pyrrolo[3,2-b]pyridin-1-yl]-2-[(2R,5R)-5-methyl-2-{1H,2H,3H-pyrrolo[2,3-b]pyridin-1-ylmethyl}piperazin-1-yl]ethan-1-one dihydrochloride] | 220 |  |  | EC50 ([1]; 72 h): 9600 nM; IC50 [2]: < 1000 nM; IC50 [2, 4]: 140 nM
7 | CCCC(F)(F)c1cnc2c(c1)N(C(=O)CN1C[C@@H](C)NC[C@@H]1CN1CCOC[C@H]1CC)CC2(C)C [Example 248, 1-[6-(1,1-Difluorobutyl)-3,3-dimethyl-1H,2H,3H-pyrrolo[3,2-b]pyridin-1-yl]-2-[(2R,5R)-2-{[(3R)-3-ethylmorpholin-4-yl]methyl]-5-methylpiperazin-1-yl]ethan-1-one dihydrochloride] |  | 10 |  | inhibition at […] [2]: 91%; inhibition at 0.04 µM [3]: 69%
8 | C[C@@H]1CN(CC(=O)N2CC(C)(C)c3ncc(Cc4ccccc4F)cc32)[C@@H](CN2CCOC[C@H]2C)CN1 [Example 261, 1-[6-(2-Fluoro-benzyl)-3,3-dimethyl-2,3-dihydro-pyrrolo[3,2-b]pyridin-1-yl]-2-[(2R,5R)-5-methyl-2-((R)-3-methyl-morpholin-4-ylmethyl)-piperazin-1-yl]-ethanone dihydrochloride] |  | 2.1 |  | inhibition at […] [2]: 96%; inhibition at 0.04 µM [3]: 55%
9 | C[C@@H]1CN(CC(=O)N2CC(C)(C)c3ncc(Cc4ccccc4F)cc32)[C@@H](CN2CCOCC2)CN1 [Example 247, 1-{6-[(2-Fluorophenyl)methyl]-3,3-dimethyl-1H,2H,3H-pyrrolo[3,2-b]pyridin-1-yl}-2-[(2R,5R)-5-methyl-2-(morpholin-4-ylmethyl)piperazin-1-yl]ethan-1-one dihydrochloride] | 66 |  |  | EC50 ([1]; 72 h): 33 nM; inhibition at […] [2]: 80%
10 | C[C@@H]1CN(CC(=O)N2CC(C)(C)c3ccc(Cc4ccccc4)cc32)[C@@H](C(=O)N2CCOCC2)CN1 [Example 111, 1-(6-Benzyl-3,3-dimethyl-2,3-dihydro-indol-1-yl)-2-[(2R,5R)-5-methyl-2-(morpholine-4-carbonyl)-piperazin-1-yl]-ethanone, hydrochloride salt] | 74 | 71 |  | inhibition at 0.01 µM ([2]; Probe B, @ 0.01 μM): 63%

Further compounds by falling EC50 ([1]; 72 hours, Alamar Blue), results first:

Row | IC50 [3] [nM] | EC50 ([1]; 72 hours, Alamar Blue) [nM] | inhibition at […] ([2]; Probe B, @ 0.012 μM) [%] | SMILES | further results
11 | 55 | 9200 |  | C[C@@H]1CN(CC(=O)N2CC(C)(c3ccccc3)c3ccc(C#N)cc32)[C@@H](C(=O)N2CCOCC2)CN1 (stereo partly drawn) [Example 149, 3-Methyl-1-{2-[(2R,5R)-5-methyl-2-[(morpholin-4-yl)carbonyl]piperazin-1-yl]acetyl}-3-phenyl-2,3-dihydro-1H-indole-6-carbonitrile hydrochloride] | IC50 [2, 5]: 130 nM
12 | 470 | 5700 |  | C[C@@H]1CN(CC(=O)N2CCc3cc(F)c(S(=O)(=O)c4ccccc4)cc32)CCN1 [Example 41, 1-(6-Benzenesulfonyl-5-fluoro-2,3-dihydro-indol-1-yl)-2-((R)-3-methyl-piperazin-1-yl)-ethanone] | IC50 ([2]; Probe A AVPIK(5&6FAM)-amide, read-out: IC50 or PI cIAP1: IC50): 1300 nM
13 | 240 | 510 |  | COC[C@H]1CN[C@H](C)CN1CC(=O)N1CC(C)(C)c2cnc(C(C)c3ccccc3)cc21 (stereo partly drawn) [Example 87, 1-[3,3-Dimethyl-6-(1-phenylethyl)-1H,2H,3H-pyrrolo[3,2-c]pyridin-1-yl]-2-[(2R,5R)-2-(methoxymethyl)-5-methylpiperazin-1-yl]ethan-1-one, hydrochloride salt] | IC50 [2]: < 1000 nM; IC50 [2, 5]: 24 nM
14 | 110 | 440 |  | COC[C@H]1CN[C@H](C)CN1CC(=O)N1CC(C)(C)c2cnc(C3=CCCCC3)cc21 [Example 106, 1-[6-(Cyclohex-1-en-1-yl)-3,3-dimethyl-1H,2H,3H-pyrrolo[3,2-c]pyridin-1-yl]-2-[(2R,5R)-2-(methoxymethyl)-5-methylpiperazin-1-yl]ethan-1-one, hydrochloride salt] | IC50 [2, 5]: 23 nM
15 | 100 | 260 | 84 | C[C@@H]1CN(CC(=O)N2CC(C)(C)c3c[n+]([O-])c(Cc4ccc(F)cc4F)cc32)[C@@H](C(=O)N(C)C)CN1 [Example 167, (2R,5R)-1-(2-{6-[(2,4-Difluorophenyl)methyl]-3,3-dimethyl-5-oxo-1H,2H,3H-1,5λ^5-pyrrolo[3,2-c][1λ^5]pyridin-1-yl}-2-oxoethyl)-N,N,5-trimethylpiperazine-2-carboxamide hydrochloride] | 
16 | 290 | 200 |  | CC[C@H]1CN[C@H](C)CN1CC(=O)N1CC(C)(C)c2cnc(Cc3ccccc3)cc21 [Example 91, 1-{6-Benzyl-3,3-dimethyl-1H,2H,3H-pyrrolo[3,2-c]pyridin-1-yl}-2-[(2S,5R)-2-ethyl-5-methylpiperazin-1-yl]ethan-1-one, hydrochloride salt] | IC50 [2, 5]: 19 nM
17 | 120 | 81 | 62 | CCCC(F)(F)c1cnc2c(c1)N(C(=O)CN1C[C@@H](C)NC[C@@H]1CN1CC[C@@H](F)C1)CC2(C)C [Example 223, 1-[6-(1,1-Difluorobutyl)-3,3-dimethyl-1H,2H,3H-pyrrolo[3,2-b]pyridin-1-yl]-2-[(2R,5R)-2-{[(3R)-3-fluoropyrrolidin-1-yl]methyl}-5-methylpiperazin-1-yl]ethan-1-one hydrochloride] | 
18 |  | 13 | 92 | C[C@@H]1CN(CC(=O)N2CC(C)(C)c3cnc(Cc4ccccc4F)cc32)[C@@H](CN2CCCC2=O)CN1 [Example 242, 1-{[(2R,5R)-1-(2-{6-[(2-Fluorophenyl)methyl]-3,3-dimethyl-1H,2H,3H-pyrrolo[3,2-c]pyridin-1-yl}-2-oxoethyl)-5-methylpiperazin-2-yl]methyl}pyrrolidin-2-one hydrochloride] | inhibition at 0.04 µM ([3]; @ 0.04 μM): 65%
19 | 55 | 4.6 | 97 | C[C@@H]1CN(CC(=O)N2CC(C)(C)c3cnc(Cc4ccc(F)cc4)cc32)[C@@H](CN2CCOCC2)CN1 [Example 237, 1-{6-[(4-Fluorophenyl)methyl]-3,3-dimethyl-1H,2H,3H-pyrrolo[3,2-c]pyridin-1-yl}-2-[(2R,5R)-5-methyl-2-(morpholin-4-ylmethyl)piperazin-1-yl]ethan-1-one hydrochloride] | 
20 |  | 2.2 | 98 | C[C@@H]1CN(CC(=O)N2CC(C)(C)c3cnc(Cc4ccccc4F)cc32)[C@@H](CN2CCOC[C@H]2C)CN1 [Example 244, 1-{6-[(2-Fluorophenyl)methyl]-3,3-dimethyl-1H,2H,3H-pyrrolo[3,2-c]pyridin-1-yl}-2-[(2R,5R)-5-methyl-2-{[(3R)-3-methylmorpholin-4-yl]methyl}piperazin-1-yl]ethan-1-one hydrochloride] | inhibition at 0.04 µM ([3]; @ 0.04 μM): 67%
